According to BigSolDB 2.1:

CC(=O)N(CC(O)CO)c1c(I)c(C(=O)NCC(O)CO)c(I)c(C(=O)NCC(O)CO)c1I (stereo not given)
solubility (mole fraction)
Settings	283.15 K	288.15 K	293.15 K	298.15 K	303.15 K	308.15 K	313.15 K	318.15 K	323.15 K
in 1,4-dioxane	–	5.7e-05	6.9e-05	8.3e-05	0.0001	0.000121	0.000145	0.000174	0.000208
in 2-butanone	0.000148	0.000178	0.000211	0.000255	0.000301	0.000358	0.000425	0.00049	0.000566
in DMSO	–	–	0.000293	0.000357	0.000428	0.00051	0.000624	0.000737	0.000869
in acetone	0.000174	0.000209	0.000256	0.000308	0.000371	0.000443	0.000526	0.00062	0.000741
in acetonitrile	8.47e-05	0.000101	0.000123	0.000146	0.000175	0.00021	0.00025	0.000298	0.000354
in cyclohexane	9.38e-06	1.22e-05	1.55e-05	2e-05	2.51e-05	3.14e-05	3.89e-05	4.81e-05	5.96e-05
in ethanol	0.00113	0.0013	0.00148	0.00169	0.00192	0.00217	0.00244	0.00274	0.00306
in ethyl acetate	0.000126	0.00015	0.00018	0.000215	0.000256	0.000301	0.000355	0.000414	0.000481
in isopropanol	0.000389	0.000456	0.000555	0.000674	0.000806	0.000966	0.00115	0.00137	0.00165
in n-butanol	0.000235	0.000287	0.000342	0.000416	0.0005	0.000601	0.000723	0.000866	0.00103
in n-propanol	0.000715	0.000804	0.000911	0.00104	0.00119	0.00137	0.00156	0.00181	0.0021
in toluene	2.5e-05	3.22e-05	4.06e-05	5.12e-05	6.28e-05	7.57e-05	9.19e-05	0.000112	0.000134
